Data published in patent US9815815B2, “Non-selective kinase inhibitors” (GILEAD SCIENCES, INC., priority 2013, dated 2017).

Tests used:
[1] = test system: PDGFAA stimulated phosphorylation of ERK1 and ERK2; assay: PDGFAA stimulated phosphorylation of ERK1 and ERK2 in human fetal lung fibroblasts; format: cell-based; conditions: 1 uM
[2] = test system: PDGFBB stimulated AKT phosphorylation (SER473); conditions: 5 μM; PDGFRβ null and PDGFRα null cell lines; cited from earlier work
[3] = test system: PDGFBB stimulated phosphorylation of ERK1 and ERK2; assay: PDGFBB stimulated phosphorylation of ERK1 and ERK2 in human fetal lung fibroblasts; format: cell-based; conditions: for PDGFBB stimulated ppERK1 formation: 1 uM
AKT phosphorylation = conditions: 0.1 μM; PASMC from control and monocrotaline treated rats; cited from earlier work
rat MCT+PN model = assay: Telemetry study of PA pressure in the rat MCT+PN model; format: in vivo; conditions: for PA systolic pressure: imatinib telemetry study (study 4), 8 min 3x/day
Procedure: Efficacy study in the rat MCT+PN model. Pneumonectomy and implantation of a TRM53P telemetry monitor in the pulmonary artery (Telemetry Research, New Zealand and ADlnstruments, Colorado) was carried out in rats. Two weeks after MCT, PK10453 (Structure 2) was administered three times daily for 1 week. […] Sampling of PA pressure was performed 5 min before each morning dose in ambulatory animals in room air (estimated atmospheric pressure 716 mm Hg based on elevation of animal facility). […] Telemetry data was obtained for 10 min daily before each morning dose for this protocol.

[4] = test system: PDGFBB stimulated AKT phosphorylation; assay: In cell Western (ICW), PDGFBB stimulated AKT phosphorylation in human fetal lung fibroblasts; format: cell-based; conditions: comparison in words
Procedure: In cell Western (ICW). […] HLFs were maintained in subculture at no more than 6 passages in DMEM with 5% FBS and 4 mM Glutamax at 37° C., 5% CO2. HLFs were plated and grown to 70-80% confluence in 96 well plates then serum-starved for 48 hours. […] Antibodies were detected using IRDye 680LT goat anti-mouse IgG and IRDye 800W goat a-rabbit IgG conjugated antibodies. After washing, the signal was quantified using an Odyssey Infrared Imaging System (LI-COR). Phosphoprotein signal (800 nm) was normalized to total protein signal (700 nm) acquired from each well and experimental duplicates on same plate were averaged and reported.

Procedure for rat MCT model: At the end of the study RVSP pressure was measured; lung and heart fixed in formalin. For measurement of RVSP animals were sedated with isoflurane, intubated via a tracheostomy, and ventilated with a TOPOVENT pressure regulated ventilator (peak inspiratory pressure 18 cm H2O, PEEP 5 cm). After sternotomy, a Scisense high fidelity catheter inserted via the RV apex.
Histology and morphometric analysis. At the end of the study, the heart and lungs were removed from ventilated animals under general anesthesia. Heparinized saline was infused under pressure through the main pulmonary artery. […] The heart was removed, and the RV free wall, interventricular septum and LV free wall dissected and weighed. Buffered formalin (10%) was infused under pressure both through the pulmonary artery and the trachea. Morphometric analysis was performed on H&E stained formalin fixed tissue sectioned at 8 μm. The media area and lumen area of pulmonary arterioles were measured with Image J software by a technician blinded to treatment group. Measurements were made on 20 pulmonary arterioles per section. The ratio of the lumen area to the total media area was determined This ratio normalizes the variation in total pulmonary arteriole area. […] Briefly, pre-capillary arterioles were assigned grade 0 for no evidence of neointimal lesions, grade 1 for less than 50% luminal occlusion, and grade 2 for greater than 50% occlusion.

Cc1ccc(NC(=O)c2ccc(CN3CCN(C)CC3)cc2)cc1Nc1nccc(-c2cccnc2)n1 [Imatinib]
decreasing PDGF AA stimulated ppERK1 and ppERK2 formation [1]: equally effective
PDGFBB stimulated AKT phosphorylation (SER473) [2]: blocked
PDGFBB stimulated ppERK1 formation [3]: no effect
RV end systolic pressure (rat MCT model; 8 min inhalation 3x/day, two weeks): 31.8±1.8 mm Hg
efficacy in the MCT model, in words (rat MCT model; given by inhalation): equally effective
phosphorylation of AKT at Thr308 (AKT phosphorylation): no effect
efficacy in the MCT+PN model, in words (rat MCT+PN model; by inhalation): not effective
PA systolic pressure (rat MCT+PN model; day 1): 41.5±3.5 mm Hg
PA systolic pressure (rat MCT+PN model; treatment day 9): 75.1±7 mm Hg

COc1cc(-c2cncc(N[C@@H](C)c3cccc(NC(=O)c4cnc(C#N)nc4)c3)n2)ccc1O [PK10467]
IC50 for inhibiting PDGFBB stimulated AKT phosphorylation, compared to imatinib [4]: lower IC50 concentrations compared to imatinib

C=CS(=O)(=O)NCc1ccc(C(=O)Nc2cccc([C@H](C)Nc3cncc(-c4ccc(O)c(OC)c4)n3)c2)cc1 [PK10468]
IC50 for inhibiting PDGFBB stimulated AKT phosphorylation, compared to imatinib [4]: lower IC50 concentrations compared to imatinib

COc1cc(-c2cncc(N[C@@H](C)c3cccc(NC(=O)c4cncc(C)c4)c3)n2)ccc1C [PK10569]
IC50 for inhibiting PDGFBB stimulated AKT phosphorylation, compared to imatinib [4]: lower IC50 concentrations compared to imatinib

COc1ccc(-c2cncc(N[C@@H](C)c3cccc(NC(=O)c4cncc(C)c4)c3)n2)cc1OC [PK10571]
decreasing PDGF AA stimulated ppERK1 and ppERK2 formation [1]: equally effective
PDGFBB stimulated ppERK1 formation [3]: effective
decreasing PDGF BB stimulated ppERK1 and ppERK2, compared to imatinib ([3]; 1 uM and 10 uM): more effective
ratio diphosphorylated ERK2 to total ERK2 (ppERK2/ERK2) ([3]; PDGFAA or PDGFBB stimulation (10 ng/ml), 1 uM and 10 uM): significantly decreased
ratio diphosphorylated ERK1 to total ERK1 (ppERK1/ERK1) ([3]; PDGFAA or PDGFBB stimulation, 1 μM and 10 μM): significantly decreased
IC50 for inhibiting PDGFBB stimulated AKT phosphorylation, compared to imatinib [4]: lower IC50 concentrations compared to imatinib
